Reference: patent US20240148745A1, “COMPOUNDS FOR USE IN PROGRESSIVE MULTIPLE SCLEROSIS” (FONDAZIONE CENTRO SAN RAFFAELE, priority 2021, published 2024)

Tested on: human embryonic and fetal neural precursors (hufNPCs)
Experiment: hufNPC differentiation towards TUJ1+ neurons
Assay type: cell-based
Details: 1 μM, 7 days
Procedure: First, fresh human fetal brain tissues were mechanically dissociated, followed by enzymatic dissociation with Trypsin (LONZA (BE17-161E) 1:5) in growth medium for 5-10 min at 37° C., 5% O2 e 5% CO2, then washed with 10% Australian FBS in fresh medium and centrifuged 15 min at 200 g. Cells were plated in T25 flask in Neural stem cell growth medium (NeuroCult-XF Basal Medium (cat. #05760)+ NeuroCult-XF Proliferation supplement (cat. #05763) (for Human Neural Stem Cells) […] TECHNOLOGIES+human recombinant carrier-free EGF (cat. #1325 9510 00) and bFGF (cat. #1370 9505 00) (Provitro) at final concentration of 20 ng/ml) at 37° C., 5% O2 e 5% CO2. After 15-25 days, enzymatic (Accumax®, StarFish cat. #GMP-102470) dissociation of neurospheres or subconfluent adherent cells was performed and cells were re-plated at density (25000 cells/cm2) in NGM. […] Pro-differentiating properties of 160 compounds were evaluated by co-incubating freshly seeded in 96 well plate hufNPCs with 1 μM compounds for 7 days (each compound was tested in triplicate). […] After one week, cells were fixed and analyzed via immunocytochemistry. […] 15 images per well were acquired and analyzed by CellProfiler. Number of TUJ1+/DAPI cells was counted and compared to DMSO.
160 selected non-toxic compounds pro-differentiating properties were evaluated on human embryonic and fetal neural precursors (hufNPCs). […]

SMILES: CC1(C)CCC(C)(C)c2cc(NC(=O)c3ccc(C(=O)O)cc3)ccc21 [Tamibarotene]
- neuronal differentiation (TUJ1+/DAPI cells vs DMSO): significantly promoted neuronal differentiation compared to DMSO and heparin
